From ChEMBL document CHEMBL4325895, “Discovery and structure-activity-relationship study of novel imidazole cyclopropyl amine analogues for mutant isocitric dehydrogenase 1 (IDH1) inhibitors” (Bioorg Med Chem Lett, 2018) come the findings set out here.

In general, IC50 refers to the concentration at which inhibition is half-maximal. As usually defined, the Vd is a proportionality between amount in the body and measured concentration, not a real space. Lower therefore signals little distribution into tissue. Broadly, the clearance is a measure of how efficiently the substance is removed, as volume per time. Broadly, the AUC is the area under the concentration-time curve, a measure of exposure. Read a high AUC as high exposure. A word on the bioavailability: it is dose-corrected exposure relative to a reference, in per cent. Low readings indicate poor availability, high ones good availability.

For data set [1], the target named is Isocitrate dehydrogenase [NADP] cytoplasmic (Homo sapiens, UniProt O75874, R132H). The data set can be described thus: Inhibition of IDH1 (unknown origin) R132H mutant using alpha-KG as substrate after 60 mins in presence of NADPH by resazurin dye-based fluorescence assay. On the technique in general: Alamar Blue is a resazurin reagent that responds to reducing activity.

In data set [2] the target is Isocitrate dehydrogenase [NADP] cytoplasmic (Homo sapiens, UniProt O75874, R132C). The data set is described as follows: Inhibition of IDH1 R132C mutant in human HT1080 cells assessed as inhibition of 2HG production after 48 hrs by LC-MS/MS analysis. The class given is cell-based.
Data set [3] can be described thus: Drug level in human liver microsomes treated with (R)-3-(2-((1-(1-(3-chloro-4-fluorophenyl)-1H-imidazol-4-yl)cyclopropyl)amino)pyrimidin-4-yl)-4-((S)-1-fluoroethyl)oxazolidin-2-one at 0.01 uM after 60 mins by LC-MS/MS analysis. The class given is ADME, Microsome. Background: Microsomes from liver hold many membrane-bound enzymes, among them those of drug oxidation.

Data set [4] can be described thus: Volume of distribution at steady state in CD-1 mouse at 1 mg/kg, iv by mass spectrometric analysis. The class given is ADME, organism-based. The conditions noted are these: in vivo.
Data set [5] can be described thus: Clearance in CD-1 mouse at 1 mg/kg, iv by mass spectrometric analysis. It is filed as ADME, organism-based. The conditions noted are these: in vivo.
Data set [6] in a line: AUC in CD-1 mouse at 1 mg/kg, iv by mass spectrometric analysis. It is filed as ADME, organism-based. The following applies: in vivo.
Data set [7] is described as follows: Intrinsic clearance in rat liver microsomes assessed per gram of protein at 0.1 uM after 60 mins in presence of NADPH by LC-MS/MS analysis. It is filed as ADME, Microsome. The conditions noted are these: 1 h.
Data set [8] in a line: AUC in CD-1 mouse at 5 mg/kg, po administered via gavage by mass spectrometric analysis. The class given is ADME, organism-based. The conditions noted are these: in vivo.
Data set [9] can be described thus: Stability in human liver microsomes assessed as parent compound remaining at 0.01 uM after 60 mins by LC-MS/MS analysis. The class given is ADME, Microsome. The conditions noted are these: read-out: Stability.
Data set [10] is described as follows: Intrinsic clearance in human liver microsomes assessed per gram of protein at 0.1 uM after 60 mins in presence of NADPH by LC-MS/MS analysis. It is filed as ADME, Microsome. The conditions noted are these: 1 h.
A short description of data set [11]: Intrinsic clearance in mouse liver microsomes assessed per gram of protein at 0.1 uM after 60 mins in presence of NADPH by LC-MS/MS analysis. The conditions noted are these: 1 h. The class given is ADME, Microsome.
Data set [12] can be described thus: Oral bioavailability in CD-1 mouse at 5 mg/kg administered via gavage by mass spectrometric analysis. The class given is ADME, organism-based. The conditions noted are these: in vivo.
The nature of data set [13]: Dose normalized AUC in CD-1 mouse at 5 mg/kg, po administered via gavage by mass spectrometric analysis. It is filed as ADME, organism-based. The following applies: in vivo.

Isocitrate dehydrogenase [NADP] cytoplasmic (Homo sapiens, UniProt O75874, R132H), sequence (O75874 2-414 R132H limits assumed): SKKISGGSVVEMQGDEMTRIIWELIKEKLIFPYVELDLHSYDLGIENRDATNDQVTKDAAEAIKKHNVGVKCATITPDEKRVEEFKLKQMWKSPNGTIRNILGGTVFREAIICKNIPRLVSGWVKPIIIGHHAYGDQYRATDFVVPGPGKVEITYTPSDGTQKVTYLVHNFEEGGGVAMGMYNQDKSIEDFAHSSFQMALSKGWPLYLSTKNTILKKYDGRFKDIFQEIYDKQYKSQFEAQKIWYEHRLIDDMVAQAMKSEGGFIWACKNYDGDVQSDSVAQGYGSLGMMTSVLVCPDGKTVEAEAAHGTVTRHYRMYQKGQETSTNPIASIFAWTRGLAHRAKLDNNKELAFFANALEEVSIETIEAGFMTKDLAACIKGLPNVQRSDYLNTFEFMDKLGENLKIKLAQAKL
Isocitrate dehydrogenase [NADP] cytoplasmic (Homo sapiens, UniProt O75874, R132C), sequence (O75874 2-414 R132C limits assumed): as the sequence (O75874 2-414 R132H limits assumed) above, with H131C counted along it

Turning to `C[C@H](F)[C@H]1COC(=O)N1c1ccnc(NC2(c3cn(-c4cccc(C(F)(F)F)n4)cn3)CC2)n1`, the IC50 in [1] amounted to 266 nM.
`C[C@H](F)[C@H]1COC(=O)N1c1ccnc(NC2(c3cn(-c4cncc(C(F)(F)F)c4)cn3)CC2)n1`: the IC50 in data set [1] was 152 nM.
As for `C[C@H](F)[C@H]1COC(=O)N1c1ccnc(NC2(c3ncn(-c4cccc(C(F)(F)F)c4)c3C#N)CC2)n1`, the IC50 in data set [2] came out at 55 nM; in [1], 85 nM.
`O=C1OC[C@H]([C@@H](F)CO)N1c1cc(Cl)nc(NC2(c3cn(-c4ccc(F)c(Cl)c4)cn3)CC2)n1`: in [3], the Drug uptake entry is on record as “Active”.
As to `C[C@H](F)[C@H]1COC(=O)N1c1ccnc(NC2(c3cn(-c4cccc(Cl)c4)cn3)CC2)n1`, the IC50 in data set [2] was determined as 23 nM; in [1], 42 nM.
`C[C@H](F)[C@H]1COC(=O)N1c1ccnc(NC2(c3cn(-c4cc(C(F)(F)F)ccn4)cn3)CC2)n1`: the IC50 in [1] was 250 nM.
Take `C[C@H](F)[C@H]1COC(=O)N1c1ccnc(NC2(c3cn(-c4ccc(F)c(Cl)c4)cn3)CC2)n1`: in data set [4], the Vd was 1.2 L/kg. Besides, in data set [5], the clearance is 172 mL/min/kg. Moreover, the AUC in [6] was determined as 40 ng·h/mL; in [8] it was 25 ng·h/mL. For the same compound, the CLint came out at 133 mL/min/g in data set [7], 125 mL/min/g in [10] and 185 mL/min/g in data set [11]. In addition, the remaining at 1 h, 0.01 µM in data set [9] stood at 22%. Further, the IC50 in [2] was 12 nM; in data set [1] it was 25 nM. In [12], this compound showed a bioavailability of 20%.
As to `C[C@H](F)[C@H]1COC(=O)N1c1ccnc(NC2(c3cn(-c4ccc(C(F)(F)F)cc4)cn3)CC2)n1`, the IC50 in [2] was determined as 32 nM; in data set [1], 65 nM.
Turning to `CC(F)(F)[C@H]1COC(=O)N1c1ccnc(NC2(c3cn(-c4ccc(F)c(Cl)c4)cn3)CC2)n1`, in data set [1], the IC50 was found to be 721 nM.
In the case of `C[C@H](F)[C@H]1COC(=O)N1c1ccnc(NC2(c3cn(-c4ccc(Cl)cc4)cn3)CC2)n1`, the IC50 in data set [2] stood at 56 nM; in data set [1], 54 nM.
For the compound `C[C@H](F)[C@H]1COC(=O)N1c1cc(Cl)nc(NC2(c3cn(-c4ccc(F)c(Cl)c4)cn3)CC2)n1`, the CLint in data set [7] was 123 mL/min/g; in [10], 110 mL/min/g; in data set [11], 155 mL/min/g. Also, the IC50 in data set [2] amounted to 25 nM; in [1], 32 nM.
For the compound `C[C@H](F)[C@H]1COC(=O)N1c1ccnc(NC2(c3ncn(-c4cccc(C(F)(F)F)c4)c3Cl)CC2)n1`, the IC50 in data set [2] turned out to be 26 nM; in data set [1] it was 41 nM.
Take `Cc1c(C2(Nc3nccc(N4C(=O)OC[C@@H]4[C@H](C)F)n3)CC2)ncn1-c1cccc(C(F)(F)F)c1`: the IC50 in data set [2] is 38 nM; in data set [1], 56 nM.
As to `C[C@H](F)[C@H]1COC(=O)N1c1ccnc(NC2(c3cn(-c4cc(Cl)cc(Cl)c4)cn3)CC2)n1`, the IC50 came to 21 nM in [2] and 36 nM in data set [1].
Consider `C[C@H](F)[C@H]1COC(=O)N1c1ccnc(NC2(c3cn(-c4cccc(C(F)(F)F)c4)cn3)CC2)n1`, for which the CLint in [7] is 312 mL/min/g; in data set [10] it was 153 mL/min/g; in data set [11] it was 430 mL/min/g. Besides, the IC50 in data set [2] was 10 nM; in data set [1], 32 nM.
Take `C[C@H](F)[C@H]1COC(=O)N1c1nc(NC2(c3cn(-c4ccc(F)c(Cl)c4)cn3)CC2)ncc1F`: the Vd in data set [4] came out at 0.6 L/kg. The clearance in data set [5] was 65 mL/min/kg. The values for the AUC in [6] and in [8] were 257 ng·h/mL and 153 ng·h/mL, respectively. Moreover, the results for the CLint in [7], in data set [10] and in data set [11] were 89 mL/min/g, 55 mL/min/g and 95 mL/min/g, respectively. Besides, the AUC/dose in [13] is 31 ng/mL.hr/(mg/kg). Besides, the IC50 came out at 18 nM in data set [2] and 35 nM in data set [1]. Also, the bioavailability in data set [12] was 12%.
As to `C[C@H](F)[C@H]1COC(=O)N1c1ccnc(NC2(c3cn(-c4ccccc4C(F)(F)F)cn3)CC2)n1`, in data set [1], the IC50 was 112 nM.
As for `C[C@H](F)[C@H]1COC(=O)N1c1ccnc(NC2(c3cn(-c4ccnc(C(F)(F)F)c4)cn3)CC2)n1`, the IC50 in data set [1] came out at 220 nM.
Consider `C[C@H](F)[C@H]1COC(=O)N1c1ccnc(NC2(c3cn(-c4cc(F)cc(Cl)c4)cn3)CC2)n1`, for which the values for the CLint in [7], in data set [10] and in data set [11] were 240 mL/min/g, 350 mL/min/g and 567 mL/min/g, respectively. The values for the IC50 in [2] and in data set [1] were 18 nM and 27 nM, respectively.
Consider `C[C@H](F)[C@H]1COC(=O)N1c1ccnc(NC2(c3ncn(-c4cccc(C(F)(F)F)c4)n3)CC2)n1`, for which the IC50 in data set [1] came out at 831 nM.
`C[C@H](F)[C@H]1COC(=O)N1c1ccnc(NC2(c3cn(-c4ccc(F)c(Cl)c4)cn3)CCC2)n1`: the CLint in data set [7] stood at 372 mL/min/g; in data set [10], 195 mL/min/g; in data set [11], 505 mL/min/g. Further, the IC50 was found to be 21 nM in [2] and 40 nM in [1].
